The results in this text go back to US12172996B2, “Methyl {4,6-diamino-2-[5-fluoro-1-(2-fluorobenzyl)-1H-pyrazolo[3,4-b]pyridin-3-yl]pyrimidin-5-yl}carbamate active compound product having improved properties, production and formulation thereof” (Adverio Pharma GmbH, priority 2018, dated 2024).

Series [1] in a line: Determination of particle size distribution (Sympatec Helos, wet dispersion unit). The series is classed as physicochemical. Particulars: 5 min ultrasound; for X10%: diameter below which 10% of the particles lie; for X50%: diameter below which 50% of the particles lie; for X90%: diameter below which 90% of the particles lie. As to the method: Determination of particle size distribution. Determination of particle size distribution is performed using a Sympatec Helos instrument fitted with a wet dispersion unit. To produce the dispersion medium 10-25 mg of the active compound product of the compound of formula (I) (micronized or non-micronized) are predispersed with 10 ml of water/1 drop of Tween 20 in a small vessel. The dispersion is stirred but not shaken to avoid foam formation. The dispersed material is subsequently added to the deionized water (approx. 0.51) in the wet dispersion unit, treated with ultrasound for 5 minutes and measured (10 seconds). The sound exposure time is 5 minutes, a 50 mm aperture is employed (R2, or if measurement range exceeded, R3), the optical density of the suspension is 10-25%, the stirring/pumping speed is set to 50% (40-60%) and evaluation is carried out after 5 minutes of ultrasound.
The three columns X10%, X50% and X90% indicate the diameter below which 10%, 50% and 90% respectively of the particles of the analysed active compound product lie.

A short description of series [2]: ATR IR of the modification after micronization. In kind it is physicochemical. The source says:
16.1 kg of methyl {4,6-diamino-2-[5-fluoro-1-(2-fluorobenzyl)-1H-pyrazolo[3,4-b]pyridin-3-yl]pyrimidin-5-yl}carbamate of formula (I) in the crystalline form of modification I, produced according to example 13, method E of WO 2013/076168, were micronized to afford 15.2 kg. The yield was 94.4%. […] The ATR IR diagram corresponds to the IR spectrum of the compound of formula (I) in modification I according to FIG. 1 of WO 2013/076168.
39.0 kg of methyl {4,6-diamino-2-[5-fluoro-1-(2-fluorobenzyl)-1H-pyrazolo[3,4-b]pyridin-3-yl]pyrimidin-5-yl}carbamate of formula (I) in the crystalline form of modification I, produced by the process according to the invention of example 4, were micronized to afford 36.9 kg. The yield was 94.6%.
The ATR IR diagram corresponds to the IR spectrum of the compound of formula (I) in modification I according to FIG. 1 of WO 2013/076168.

In series [1] (listed as 2-6), `COC(=O)Nc1c(N)nc(-c2nn(Cc3ccccc3F)c3ncc(F)cc23)nc1N` [Batch 2-6] returned an X10% of 1.0 μm, an X50% of 9.0 μm and an X90% of 34.4 μm.
In series [1] (listed as 2-4), `COC(=O)Nc1c(N)nc(-c2nn(Cc3ccccc3F)c3ncc(F)cc23)nc1N` [Batch 2-4] yielded an X10% of 0.5 μm, an X50% of 1.8 μm and an X90% of 9.5 μm.
`COC(=O)Nc1c(N)nc(-c2nn(Cc3ccccc3F)c3ncc(F)cc23)nc1N` [Batch 2-5]: in series [1] (listed as 2-5), the X10% worked out at 1.4 μm, the X50% is given as 18.7 μm and the X90% is reported as 50.6 μm.
In series [1] (listed as 2-3), `COC(=O)Nc1c(N)nc(-c2nn(Cc3ccccc3F)c3ncc(F)cc23)nc1N` [Batch 2-3] had an X10% of 1.0 μm, an X50% of 4.3 μm and an X90% of 27.4 μm.
`COC(=O)Nc1c(N)nc(-c2nn(Cc3ccccc3F)c3ncc(F)cc23)nc1N` [Batch 2-8]: in series [1] (listed as 2-8), the X10% turned out to be 0.6 μm, the X50% stood at 2.6 μm and the X90% came to 13.6 μm.
`COC(=O)Nc1c(N)nc(-c2nn(Cc3ccccc3F)c3ncc(F)cc23)nc1N` [Batch 2-7]: in series [1] (listed as 2-7), the X10% came out at 0.6 μm, the X50% worked out at 4.1 μm and the X90% is 23.6 μm.
In series [1] (listed as 2-2), `COC(=O)Nc1c(N)nc(-c2nn(Cc3ccccc3F)c3ncc(F)cc23)nc1N` [Batch 2-2] came in with an X10% of 0.9 μm, an X50% of 4.2 μm and an X90% of 31.9 μm.
As for `COC(=O)Nc1c(N)nc(-c2nn(Cc3ccccc3F)c3ncc(F)cc23)nc1N` [compound of formula (I), Methyl {4,6-diamino-2-[5-fluoro-1-(2-fluorobenzyl)-1H-pyrazolo[3,4-b]pyridin-3-yl]pyrimidin-5-yl}carbamate], the Modification after micronization entry in series [2] (produced according to example 13, method E of WO 2013/076168, 16.1 kg micronized) is “remained in modification I even after micronization”; in series [2] (produced by the process according to the invention of example 4, 39.0 kg micronized) it was “remained in modification I even after micronization”.
With `COC(=O)Nc1c(N)nc(-c2nn(Cc3ccccc3F)c3ncc(F)cc23)nc1N` [Batch 2-1], in series [1] (listed as 2-1), the X10% is 1.0 μm, the X50% is given as 11.1 μm and the X90% was determined as 43.0 μm.
